For 18 compounds, EC50 results are on record in US20250163066A1, “PROTACs of MALT1” (TEGID THERAPEUTICS, INC., priority 2022, published 2025).

pEC50: −log10 of the molar value.

One test concerns the target MALT1 (Homo sapiens (Human), UniProt Q9UDY8). The experiment in a line: MALT1 enzymatic activity inhibition (fluorescence, Ac-LRSR-AMC substrate). Type of test: biochemical. To be noted: recombinant MALT1 1.5 ng/μl, Ac-LRSR-AMC 1 μM. A digest of the protocol: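 Recombinant human MALT1 (1.5 ng/μl final) preincubated 10 min at rt with compounds in 50 mM HEPES pH 7.2-7.4, 100 mM NaCl, 900 mM sodium citrate, 10 mM DTT; 1 μM Ac-LRSR-AMC then added. AMC fluorescence read at start and after 30 min 37 °C plus 30 min rt; difference gives signal, % inhibition fitted to IC50.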

The subject of test [1] is IL-2 MALT1-dependent release in Jurkat cells. Description: cells. Type of test: cell-based. The following applies: Homo sapiens; Jurkat cells stimulated with antiCD3/antiCD28 for 24 h; IL-2 ELISA; read-out: EC50, IL-2 MALT1-dependent release inhibition. The protocol: Jurkat cells (ATCC, USA) (100,000 cells/well in a 96 well flat-bottom plate (Greiner, #655061) were cultured in RPMI 1640 supplemented with 10% FBS at 37° C., 5% CO2 in a humidified cell culture incubator for 0.5-1 h. Then 10 μl/well 15× compound (or DMSO) was added in duplicates. Cells were incubated with compound in a humidified cell culture incubator for 0.5-1 h. After the incubation, 10 μl/well of 15× human antiCD3 HIT3a antibody (BioLegend) together with 10 μl/well of 15× human antiCD28 antibody (Invitrogen) were added to stimulate Jurkat cells for 24 h. After 24 h of stimulation, supernatants were collected and IL-2 levels in supernatants were assessed using IL-2 ELISA kit (Vector-Best, Russia).
Background: An ELISA detects its analyte on a solid surface through an enzyme-linked reagent.

MALT1, sequence (Q9UDY8 whole entry): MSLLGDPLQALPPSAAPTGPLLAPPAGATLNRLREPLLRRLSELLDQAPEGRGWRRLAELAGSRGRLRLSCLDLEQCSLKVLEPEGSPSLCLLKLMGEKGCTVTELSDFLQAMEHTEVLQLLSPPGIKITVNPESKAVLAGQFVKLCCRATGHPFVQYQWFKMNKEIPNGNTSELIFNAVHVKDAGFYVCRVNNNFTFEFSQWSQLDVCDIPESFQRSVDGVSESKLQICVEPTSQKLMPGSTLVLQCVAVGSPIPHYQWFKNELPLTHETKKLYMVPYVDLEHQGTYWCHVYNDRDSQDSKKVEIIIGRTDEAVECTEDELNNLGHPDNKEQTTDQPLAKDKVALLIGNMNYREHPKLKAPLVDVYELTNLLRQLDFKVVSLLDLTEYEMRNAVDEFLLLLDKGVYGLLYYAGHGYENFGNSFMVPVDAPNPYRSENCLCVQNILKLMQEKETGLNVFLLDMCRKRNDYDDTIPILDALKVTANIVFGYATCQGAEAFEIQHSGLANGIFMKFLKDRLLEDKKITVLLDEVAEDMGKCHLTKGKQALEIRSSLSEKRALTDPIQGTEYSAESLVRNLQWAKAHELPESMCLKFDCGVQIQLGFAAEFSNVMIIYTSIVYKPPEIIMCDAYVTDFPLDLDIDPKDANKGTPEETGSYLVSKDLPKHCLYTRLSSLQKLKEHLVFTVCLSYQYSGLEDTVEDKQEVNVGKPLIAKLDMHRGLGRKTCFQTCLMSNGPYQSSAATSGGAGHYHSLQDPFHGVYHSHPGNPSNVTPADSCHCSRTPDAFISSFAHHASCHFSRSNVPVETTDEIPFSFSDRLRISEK

`O=C1CCC(N2Cc3cc(N4CCN(C(=O)CCCCCc5nc(-c6ncc(NC(=O)Nc7cnc8ccnn8c7C7CCCC7)cc6Cl)no5)CC4)ccc3C2=O)C(=O)N1` (stereo not shown) [Compound 3, 1-[5-chloro-6-[5-[6-[4-[2-(2,6-dioxo-3-piperidyl)-1-oxo-isoindolin-5-yl]piperazin-1-yl]-6-oxo-hexyl]-1,2,4-oxadiazol-3-yl]-3-pyridyl]-3-(7-cyclopentylpyrazolo[1,5-a]pyrimidin-6-yl)urea]: on MALT1, the EC50 was not above 0.2 µM. For the same compound, the pEC50 in test [1] is more than 6.30.

Take `Cc1cc(NC(=O)Nc2cnc3ccnn3c2C2CCCC2)cnc1-c1noc(CC(C)(C)CC(=O)N2CCN(c3ccc4c(c3)CN(C3CCC(=O)NC3=O)C4=O)CC2)n1` (stereo not shown) [Compound 10, 1-(7-cyclopentylpyrazolo[1,5-a]pyrimidin-6-yl)-3-[6-[5-[4-[4-[2-(2,6-dioxo-3-piperidyl)-1-oxo-isoindolin-5-yl]piperazin-1-yl]-2,2-dimethyl-4-oxo-butyl]-1,2,4-oxadiazol-3-yl]-5-methyl-3-pyridyl]urea]: the EC50 at MALT1 lay within 0.2 to 0.5 µM. Moreover, in test [1], the pEC50 is 6.00 to 6.30.

On to `Cc1cc(NC(=O)Nc2cnc3ccnn3c2C2CCCC2)cnc1-c1noc(CCCC(=O)N2CCN(c3ccc4c(c3)CN(C3CCC(=O)NC3=O)C4=O)CC2)n1` (stereo not shown) [Compound 12, 1-(7-cyclopentylpyrazolo[1,5-a]pyrimidin-6-yl)-3-[6-[5-[4-[4-[2-(2,6-dioxo-3-piperidyl)-1-oxo-isoindolin-5-yl]piperazin-1-yl]-4-oxo-butyl]-1,2,4-oxadiazol-3-yl]-5-methyl-3-pyridyl]urea], for which the EC50 at MALT1 is not above 0.2 µM. Besides, in test [1], the pEC50 was 5.30 to 6.00.

In the case of `Cc1cc(NC(=O)Nc2cnc3ccnn3c2C2CCCC2)cnc1-c1noc(CCC(=O)N2CCN(c3ccc4c(c3)CN(C3CCC(=O)NC3=O)C4=O)CC2)n1` (stereo not shown) [Compound 13, 1-(7-cyclopentylpyrazolo[1,5-a]pyrimidin-6-yl)-3-[6-[5-[3-[4-[2-(2,6-dioxo-3-piperidyl)-1-oxo-isoindolin-5-yl]piperazin-1-yl]-3-oxo-propyl]-1,2,4-oxadiazol-3-yl]-5-methyl-3-pyridyl]urea], the EC50 on MALT1 was not above 0.2 µM. Also, the pEC50 in test [1] is less than 5.30.

`Cc1cc(NC(=O)Nc2cnc3ccnn3c2C2CCCC2)cnc1-c1noc(CCCCC(=O)N2CCN(c3ccc4c(c3)CN(C3CCC(=O)NC3=O)C4=O)CC2)n1` (stereo not shown) [Compound 14, 1-(7-cyclopentylpyrazolo[1,5-a]pyrimidin-6-yl)-3-[6-[5-[5-[4-[2-(2,6-dioxo-3-piperidyl)-1-oxo-isoindolin-5-yl]piperazin-1-yl]-5-oxo-pentyl]-1,2,4-oxadiazol-3-yl]-5-methyl-3-pyridyl]urea]: the EC50 at MALT1 was not above 0.2 µM. In test [1], the pEC50 was 5.30 to 6.00.

Consider `Cc1cc(NC(=O)Nc2cnc3ccnn3c2C2CCCC2)cnc1-c1noc(CCOCCN2CCN(c3ccc4c(c3)CN(C3CCC(=O)NC3=O)C4=O)CC2)n1` (stereo not shown) [Compound 16, 1-(7-cyclopentylpyrazolo[1,5-a]pyrimidin-6-yl)-3-[6-[5-[2-[2-[4-[2-(2,6-dioxo-3-piperidyl)-1-oxo-isoindolin-5-yl]piperazin-1-yl]ethoxy]ethyl]-1,2,4-oxadiazol-3-yl]-5-methyl-3-pyridyl]urea], for which the EC50 on MALT1 lay within 0.2 to 0.5 µM. Also, the pEC50 in test [1] is 5.30 to 6.00.

Regarding `Cc1cc(NC(=O)Nc2cnc3ccnn3c2C2CCCC2)cnc1-c1noc(CCCCCN2CCN(c3ccc4c(c3)CN(C3CCC(=O)NC3=O)C4=O)CC2)n1` (stereo not shown) [Compound 17, 1-(7-cyclopentylpyrazolo[1,5-a]pyrimidin-6-yl)-3-[6-[5-[5-[4-[2-(2,6-dioxo-3-piperidyl)-1-oxo-isoindolin-5-yl]piperazin-1-yl]pentyl]-1,2,4-oxadiazol-3-yl]-5-methyl-3-pyridyl]urea], the EC50 at MALT1 was not above 0.2 µM. In test [1], the pEC50 was more than 6.30.

On to `Cc1cc(NC(=O)Nc2cnc3ccnn3c2C2CCCC2)cnc1-c1noc(CCCN2CCN(c3ccc4c(c3)CN(C3CCC(=O)NC3=O)C4=O)CC2)n1` (stereo not shown) [Compound 18, 1-(7-cyclopentylpyrazolo[1,5-a]pyrimidin-6-yl)-3-[6-[5-[3-[4-[2-(2,6-dioxo-3-piperidyl)-1-oxo-isoindolin-5-yl]piperazin-1-yl]propyl]-1,2,4-oxadiazol-3-yl]-5-methyl-3-pyridyl]urea], for which, at MALT1, the concentration giving a half-maximal response (EC50) was not above 0.2 µM. Also, the pEC50 in test [1] was more than 6.30.

With `Cc1cc(NC(=O)Nc2cnc3ccnn3c2C2CCCC2)cnc1-c1noc(CCCN2CCN(c3cc4c(cc3F)C(=O)N(C3CCC(=O)NC3=O)C4=O)CC2)n1` (stereo not shown) [Compound 23, 1-(7-cyclopentylpyrazolo[1,5-a]pyrimidin-6-yl)-3-[6-[5-[3-[4-[2-(2,6-dioxo-3-piperidyl)-6-fluoro-1,3-dioxo-isoindolin-5-yl]piperazin-1-yl]propyl]-1,2,4-oxadiazol-3-yl]-5-methyl-3-pyridyl]urea], on MALT1, the concentration giving a half-maximal response (EC50) is 0.2 to 0.5 µM. Also, the pEC50 in test [1] is more than 6.30.

As to `O=C(CCOCCN1CCN(c2ccc3c(c2)CN(C2CCC(=O)NC2=O)C3=O)CC1)NCCOc1ncc(Cl)cc1NC(=O)Nc1cnc2ccnn2c1C1CCCC1` (stereo not shown) [Compound 37, N-[2-[[5-chloro-3-[(7-cyclopentylpyrazolo[1,5-a]pyrimidin-6-yl)carbamoylamino]-2-pyridyl]oxy]ethyl]-3-[2-[4-[2-(2,6-dioxo-3-piperidyl)-1-oxo-isoindolin-5-yl]piperazin-1-yl]ethoxy]propanamide], the EC50 at MALT1 lay in the range of 0.5 to 1 µM. Further, the pEC50 in test [1] is 5.30 to 6.00.

Regarding `O=C1CCC(N2Cc3cc(N4CCN(CCCCCCc5nc(-c6ncc(NC(=O)Nc7cnc8ccnn8c7C7CC7)cc6Cl)no5)CC4)ccc3C2=O)C(=O)N1` (stereo not shown) [Compound 159, 1-[5-chloro-6-[5-[6-[4-[2-(2,6-dioxo-3-piperidyl)-1-oxo-isoindolin-5-yl]piperazin-1-yl]hexyl]-1,2,4-oxadiazol-3-yl]-3-pyridyl]-3-(7-cyclopropylpyrazolo[1,5-a]pyrimidin-6-yl)urea], on MALT1, the EC50 is not above 0.2 µM.

For `O=C1CCC(N2Cc3cc(N4CCN(C(=O)CCCCc5nc(-c6ncc(NC(=O)Nc7cnc8ccnn8c7C7CC7)cc6Cl)no5)CC4)ccc3C2=O)C(=O)N1` (stereo not shown) [Compound 160, 1-[5-chloro-6-[5-[5-[4-[2-(2,6-dioxo-3-piperidyl)-1-oxo-isoindolin-5-yl]piperazin-1-yl]-5-oxo-pentyl]-1,2,4-oxadiazol-3-yl]-3-pyridyl]-3-(7-cyclopropylpyrazolo[1,5-a]pyrimidin-6-yl)urea], at MALT1, the EC50 was not above 0.2 µM.

`O=C1CCC(N2Cc3cc(N4CCN(CCCCCc5nc(-c6ncc(NC(=O)Nc7cnc8ccnn8c7C7CC7)cc6Cl)no5)CC4)ccc3C2=O)C(=O)N1` (stereo not shown) [Compound 161, 1-[5-chloro-6-[5-[5-[4-[2-(2,6-dioxo-3-piperidyl)-1-oxo-isoindolin-5-yl]piperazin-1-yl]pentyl]-1,2,4-oxadiazol-3-yl]-3-pyridyl]-3-(7-cyclopropylpyrazolo[1,5-a]pyrimidin-6-yl)urea]: at MALT1, the EC50 is not above 0.2 µM.

Regarding `CC(C)c1c(NC(=O)Nc2cnc(-c3noc(CCCCCC(=O)N4CCN(c5ccc6c(c5)CN(C5CCC(=O)NC5=O)C6=O)CC4)n3)c(C(F)(F)F)c2)cnc2ccnn12` (stereo not shown) [Compound 162, 1-[6-[5-[6-[4-[2-(2,6-dioxo-3-piperidyl)-1-oxo-isoindolin-5-yl]piperazin-1-yl]-6-oxo-hexyl]-1,2,4-oxadiazol-3-yl]-5-(trifluoromethyl)-3-pyridyl]-3-(7-isopropylpyrazolo[1,5-a]pyrimidin-6-yl)urea], the EC50 on MALT1 is not above 0.2 µM.

For `Cc1nn(CCCCC(=O)N2CCN(c3ccc4c(c3)CN(C3CCC(=O)NC3=O)C4=O)CC2)cc1NC(=O)Nc1cnc2ccnn2c1C(C)C` (stereo not shown) [Compound 164, 1-[1-[5-[4-[2-(2,6-dioxo-3-piperidyl)-1-oxo-isoindolin-5-yl]piperazin-1-yl]-5-oxo-pentyl]-3-methyl-pyrazol-4-yl]-3-(7-isopropylpyrazolo[1,5-a]pyrimidin-6-yl)urea], on MALT1, the EC50 is more than 5 µM.

As for `O=C1CCC(N2Cc3cc(N4CCN(C(=O)CCCc5nc(-c6ncc(NC(=O)Nc7cnc8ccnn8c7C7CC7)cc6Cl)no5)CC4)ccc3C2=O)C(=O)N1` (stereo not shown) [Compound 165, 1-[5-chloro-6-[5-[4-[4-[2-(2,6-dioxo-3-piperidyl)-1-oxo-isoindolin-5-yl]piperazin-1-yl]-4-oxo-butyl]-1,2,4-oxadiazol-3-yl]-3-pyridyl]-3-(7-cyclopropylpyrazolo[1,5-a]pyrimidin-6-yl)urea], the EC50 on MALT1 is not above 0.2 µM.

As to `O=C1CCC(N2Cc3cc(N4CCN(CCCCc5nc(-c6ncc(NC(=O)Nc7cnc8ccnn8c7C7CC7)cc6Cl)no5)CC4)ccc3C2=O)C(=O)N1` (stereo not shown) [Compound 166, 1-[5-chloro-6-[5-[4-[4-[2-(2,6-dioxo-3-piperidyl)-1-oxo-isoindolin-5-yl]piperazin-1-yl]butyl]-1,2,4-oxadiazol-3-yl]-3-pyridyl]-3-(7-cyclopropylpyrazolo[1,5-a]pyrimidin-6-yl)urea], the concentration for a half-maximal effect (EC50) on MALT1 was not above 0.2 µM.

On to `Cc1cc(NC(=O)Nc2cnc3ccnn3c2C2CC2)cnc1-c1noc(CCCCC(=O)N2CCN(c3ccc4c(c3)CN(C3CCC(=O)NC3=O)C4=O)CC2)n1` (stereo not shown) [Compound 169, 1-(7-cyclopropylpyrazolo[1,5-a]pyrimidin-6-yl)-3-[6-[5-[5-[4-[2-(2,6-dioxo-3-piperidyl)-1-oxo-isoindolin-5-yl]piperazin-1-yl]-5-oxo-pentyl]-1,2,4-oxadiazol-3-yl]-5-methyl-3-pyridyl]urea], for which the EC50 on MALT1 is not above 0.2 µM.

As usually defined, the EC50 is the midpoint of the concentration-response curve. Usually pEC50 stands for the negative decadic logarithm of the EC50, by convention in mol/L.
